The test system of the first assay is Mycobacterium tuberculosis strain EH 4.0 (361.269). Description: Test 4: MIC determination, resazurin fluorescence, strain EH 4.0. As to conditions: Mycobacterium tuberculosis, read-out: pIC50, Test 4, M. tuberculosis strain EH 4.0 (361.269) (converted). Type of assay: cell-based. The text has this:
TEST 4 (See Also Test 1 Above; in this Test a Different Strain of Mycobacterium tuberculosis Strain is Employed)
Appropriate solutions of experimental and reference compounds were made in 96 well plates with 7H9 medium. Samples of Mycobacterium tuberculosis strain EH 4.0 (361.269) were taken from cultures in stationary growth phase. These were first diluted to obtain an optical density of 0.3 at 600 nm wavelength and then diluted 1/100, resulting in an inoculum of approximately 5×10 exp5 colony forming units per well. Plates were incubated at 37° C. in plastic bags to prevent evaporation. After 7 days, resazurin was added to all wells.
As to `CCc1nn2ccc(C)nc2c1C(=O)NCC1CC2(CCN(c3ccc(OC(F)(F)F)cc3)CC2)C1` [Compound 107], the IC50 is greater than 12.6 µM.

In the case of `CCc1c(C(=O)NCc2ccc(N3CC4(C3)CN(c3ccc(OC(F)(F)F)cc3)C4)cc2)c2ccncc2n1C` [Compound 47], the IC50 is 6.31 µM.

Turning to `CCc1nc2n(c1C(=O)NCc1ccc(N3CC4(CC(c5ccc(OC(F)(F)F)cc5)C4)C3)cc1)CCN(C)C2` [Compound 71], the IC50 is 0.316 µM.

For `CCc1c(C(=O)NCC2CC3(CCN(c4ccc(OC(F)(F)F)cc4)CC3)C2)c2ccncc2n1C` [Compound 52], the IC50 is 7.94 µM.

As to `CCc1nc2n(c1C(=O)NCC1CC13CCN(c1ccc(OC(F)(F)F)cc1)CC3)CCN(C)C2` (centres unmarked) [Compound 41], the IC50 is 7.94 µM.

Take `CCc1nc2n(c1C(=O)NCc1ccc(N3CC4(CC(Oc5ccc(C(F)(F)F)cc5)C4)C3)cc1)CCN(C)C2` [Compound 74]: the IC50 was 0.0631 µM.

As to `CCc1[nH]c2ncc(Cl)cc2c1C(=O)NCC1CC12CCN(c1ccc(OC(F)(F)F)cc1)CC2` (centres unmarked) [Compound 110], the IC50 is greater than 12.6 µM.

For the molecule `Cc1nc2ncc(Cl)cn2c1C(=O)NCC1CC2(CCN(c3ccc(OC(F)(F)F)cc3)CC2)C1` [Compound 60], the IC50 is 0.1 µM.

Turning to `CCc1nc2n(c1C(=O)NCC1CC13CCN(c1ccc(OC(F)(F)F)cc1)CC3)CCCC2` (centres unmarked) [Compound 48], the IC50 was 6.31 µM.

Take `CCc1[nH]c2ncc(Cl)cc2c1C(=O)NCC1CC2(CCN(c3ccc(OC(F)(F)F)cc3)CC2)C1` [Compound 113]: the IC50 was greater than 12.6 µM.

Take `CCc1c(C(=O)NCC2CC3(CCN(c4ccc(OC(F)(F)F)cc4)CC3)C2)c2cnccc2n1C` [Compound 111]: the IC50 is greater than 12.6 µM.

Turning to `CCc1nc2ncc(Cl)cn2c1C(=O)NCc1ccc(N2CC3(CC(c4ccc(S(F)(F)(F)(F)F)cc4)C3)C2)cc1` [Compound 66], the IC50 was 0.00794 µM.

As for `CCc1nn2ccc(C)nc2c1C(=O)NCc1ccc(N2CC3(CC(c4ccc(OC(F)(F)F)cc4)C3)C2)cc1` [Compound 97], the IC50 is greater than 12.6 µM.

Consider `CCc1nc2ccn(C)cc-2c1C(=O)NCC1CC2(CCN(c3ccc(OC(F)(F)F)cc3)CC2)C1` [Compound 109], for which the IC50 is greater than 12.6 µM.

For `CCc1nc2cn(C)ccc-2c1C(=O)NCc1ccc(N2CC3(CC(F)C3)C2)cc1` [Compound 34], the IC50 was greater than 12.6 µM.

In the case of `CCc1nc2sc(C)cn2c1C(=O)NCC1CC2(CCN(c3ccc(OC(F)(F)F)cc3)CC2)C1` [Compound 32], the IC50 was 0.0398 µM.

As for `CCc1nc2ccc(Cl)cn2c1C(=O)NCc1ccc(N2CC3(CC(c4cccnc4)C3)C2)cc1` [Compound 77], the IC50 is 0.794 µM.

Turning to `CCc1nc2ccn(C)cc-2c1C(=O)NCc1ccc(N2CC3(C2)CN(c2ccc(OC(F)(F)F)cc2)C3)cc1` [Compound 51], the IC50 was 6.31 µM.

Consider `CCc1nc2cnc(Cl)cn2c1C(=O)NCc1ccc(N2CC3(C2)CN(c2ccc(OC(F)(F)F)cc2)C3)cc1` [Compound 58], for which the IC50 is 0.1 µM.

Regarding `CCc1nn2c(C)ccnc2c1C(=O)NCc1ccc(C2CC3(C2)CN(c2ccc(OC(F)(F)F)cc2)C3)cc1` [Compound 103], the IC50 was 7.94 µM.

In the case of `CCc1nc2ccn(C)cc-2c1C(=O)NCC1CC12CCN(c1ccc(OC(F)(F)F)cc1)CC2` (centres unmarked) [Compound 53], the IC50 is greater than 12.6 µM.

`O=C(NCc1ccc(N2CC3(C2)CN(c2ccc(OC(F)(F)F)cc2)C3)cc1)c1cc2c([nH]1)CCCC2` [Compound 35]: the IC50 was 7.94 µM.

In the case of `CCc1nc2n(c1C(=O)NCC1CC3(CCN(c4ccc(OC(F)(F)F)cc4)CC3)C1)CCCC2` [Compound 61], the IC50 was 0.631 µM.

As for `CCc1nc2sc(C)cn2c1C(=O)NCc1ccc(C2CC3(C2)CN(c2ccc(OC(F)(F)F)cc2)C3)cc1` [Compound 67], the IC50 is 0.01 µM.

In the case of `O=C(NCC1CC12CCN(c1ccc(OC(F)(F)F)cc1)CC2)c1cc2n(c1)CCCC2` (centres unmarked) [Compound 33], the IC50 was greater than 12.6 µM.

Regarding `COc1ccn2nc(C)c(C(=O)NCc3ccc(C4CC5(C4)CN(c4ccc(OC(F)(F)F)cc4)C5)cc3)c2c1` [Compound 56], the IC50 was 0.00631 µM.

Turning to `CCc1nc2ccc(Cl)cn2c1C(=O)NCc1ccc(C2CC3(C2)CN(C=O)C3)cc1` [Compound 116], the IC50 was 0.316 µM.

Consider `CCc1nc2ncc(Cl)cn2c1C(=O)NCc1ccc(N2CC3(CC(Oc4ccc(C(F)(F)F)cc4)C3)C2)cc1` [Compound 73], for which the IC50 was 0.2 µM.

With `O=C(NCc1ccc(N2CC3(C2)CN(c2ccc(OC(F)(F)F)cc2)C3)cc1)c1cc2n(c1)CCCC2` [Compound 42], the IC50 is 10 µM.

For `CCc1nn2c(C)ccnc2c1C(=O)NCC1CC2(CCN(c3ccc(OC(F)(F)F)cc3)CC2)C1` [Compound 105], the IC50 is greater than 12.6 µM.

Take `CCc1nc2ccn(C)cc-2c1C(=O)NCc1ccc(C2CC3(C2)CN(c2ccc(OC(F)(F)F)cc2)C3)cc1` [Compound 112]: the IC50 is 3.16 µM.

In the case of `CCc1nc2ccc(Cl)cn2c1C(=O)NCc1ccc(N2CC3(CC(Oc4ccc(C(F)(F)F)cc4)C3)C2)cc1` [Compound 72], the IC50 was 0.01 µM.

As for `CCc1nc2n(c1C(=O)NCc1ccc(N3CC4(CC(F)C4)C3)cc1)CCN(C)C2` [Compound 78], the IC50 was 2.51 µM.

As to `COc1ccn2nc(C)c(C(=O)NCC3CC4(CCN(c5ccc(OC(F)(F)F)cc5)CC4)C3)c2c1` [Compound 59], the IC50 was 0.316 µM.

On to `CCc1nc2n(c1C(=O)NCc1ccc(C3CC4(C3)CN(c3ccc(OC(F)(F)F)cc3)C4)cc1)CCN(C)C2` [Compound 69], for which the IC50 was 0.0316 µM.

`O=C(NCC1CC12CCN(c1ccc(OC(F)(F)F)cc1)CC2)c1cc2c([nH]1)CCCC2` (centres unmarked) [Compound 40]: the IC50 was greater than 12.6 µM.

With `CCc1c(C(=O)NCc2ccc(N3CC4(C3)CN(c3ccc(OC(F)(F)F)cc3)C4)cc2)c2cc(Cl)cnc2n1C` [Compound 79], the IC50 was greater than 12.6 µM.

In the case of `CCc1nn2c(C)ccnc2c1C(=O)NCc1ccc(N2CC3(CC(c4ccc(OC(F)(F)F)cc4)C3)C2)cc1` [Compound 98], the IC50 was greater than 12.6 µM.

For the molecule `CCc1nc2sc(C)cn2c1C(=O)NCC1CC12CCN(c1ccc(OC(F)(F)F)cc1)CC2` (centres unmarked) [Compound 64], the IC50 is 0.1 µM.

Turning to `CCc1c(C(=O)NCc2ccc(N3CC4(CC(c5ccc(OC(F)(F)F)cc5)C4)C3)cc2)c2ccncc2n1C` [Compound 36], the IC50 is 7.94 µM.

For `CCc1nc2ccn(C)cc-2c1C(=O)NCc1ccc(N2CC3(CC(c4ccc(OC(F)(F)F)cc4)C3)C2)cc1` [Compound 104], the IC50 is greater than 12.6 µM.

In the case of `O=C(NCC1CC2(CCN(c3ccc(OC(F)(F)F)cc3)CC2)C1)c1cc2n(c1)CCCC2` [Compound 100], the IC50 was greater than 12.6 µM.

Take `CCc1nc2ccc(Cl)cn2c1C(=O)NCc1ccc(N2CCC3(CC2)CC(F)C3)cc1` [Compound 81]: the IC50 was 0.00501 µM.

Regarding `O=C(NCc1ccc(C2CC3(C2)CN(c2ccc(OC(F)(F)F)cc2)C3)cc1)c1cc2c([nH]1)CCCC2` [Compound 115], the IC50 is 3.16 µM.

For `CCc1nn2ccc(C)nc2c1C(=O)NCC1CC12CCN(c1ccc(OC(F)(F)F)cc1)CC2` (centres unmarked) [Compound 106], the IC50 was greater than 12.6 µM.

On to `CCc1c(C(=O)NCC2CC23CCN(c2ccc(OC(F)(F)F)cc2)CC3)c2ccncc2n1C` (centres unmarked) [Compound 49], for which the IC50 is greater than 12.6 µM.

Regarding `CCc1c(C(=O)NCC2CC23CCN(c2ccc(OC(F)(F)F)cc2)CC3)c2cc(Cl)cnc2n1C` (centres unmarked) [Compound 38], the IC50 was greater than 12.6 µM.

For the molecule `CCc1nc2n(c1C(=O)NCc1ccc(C3CC4(C3)CN(c3ccc(OC(F)(F)F)cc3)C4)cc1)CCCC2` [Compound 65], the IC50 was 0.01 µM.

For `O=C(NCC1CC2(CCN(c3ccc(OC(F)(F)F)cc3)CC2)C1)c1cc2c([nH]1)CCCC2` [Compound 44], the IC50 was 7.94 µM.

On to `CCc1c(C(=O)NCc2ccc(C3CC4(C3)CN(c3ccc(OC(F)(F)F)cc3)C4)cc2)c2cc(Cl)ccc2n1C` [Compound 114], for which the IC50 is 12.6 µM.

For the molecule `CCc1c(C(=O)NCC2CC3(CCN(c4ccc(OC(F)(F)F)cc4)CC3)C2)c2cc(Cl)cnc2n1C` [Compound 43], the IC50 was greater than 12.6 µM.

Regarding `COc1ccn2nc(C)c(C(=O)NCc3ccc(N4CC5(C4)CN(c4ccc(OC(F)(F)F)cc4)C5)cc3)c2c1` [Compound 57], the IC50 is 0.00794 µM.

As to `CCc1nn2ccc(C)nc2c1C(=O)NCc1ccc(C2CC3(C2)CN(c2ccc(OC(F)(F)F)cc2)C3)cc1` [Compound 102], the IC50 was 3.98 µM.

For the molecule `CCc1c(C(=O)NCC2CC23CCN(c2ccc(OC(F)(F)F)cc2)CC3)c2cnccc2n1C` (centres unmarked) [Compound 55], the IC50 is greater than 12.6 µM.

Consider `CCc1c(C(=O)NCc2ccc(N3CC4(C3)CN(c3ccc(OC(F)(F)F)cc3)C4)cc2)c2cc(Cl)ccc2n1C` [Compound 80], for which the IC50 was greater than 12.6 µM.

For the molecule `CCc1nc2n(c1C(=O)NCc1ccc(N3CC4(C3)CN(c3ccc(OC(F)(F)F)cc3)C4)cc1)CCN(C)C2` [Compound 70], the IC50 was 0.316 µM.

Regarding `CCc1c(C(=O)NCC2CC23CCN(c2ccc(OC(F)(F)F)cc2)CC3)c2cc(Cl)ccc2n1C` (centres unmarked) [Compound 39], the IC50 was greater than 12.6 µM.

In the case of `O=C(NCc1ccc(N2CC3(CC(c4ccc(OC(F)(F)F)cc4)C3)C2)cc1)c1cc2n(c1)CCCC2` [Compound 45], the IC50 is 7.94 µM.

For the molecule `CCc1nc2cn(C)ccc-2c1C(=O)NCC1CC12CCN(c1ccc(OC(F)(F)F)cc1)CC2` (centres unmarked) [Compound 99], the IC50 is greater than 12.6 µM.

As to `CCc1nc2n(c1C(=O)NCC1CC3(CCN(c4ccc(OC(F)(F)F)cc4)CC3)C1)CCN(C)C2` [Compound 46], the IC50 was 7.94 µM.

On to `CCc1nn2c(C)ccnc2c1C(=O)NCC1CC12CCN(c1ccc(OC(F)(F)F)cc1)CC2` (centres unmarked) [Compound 108], for which the IC50 was greater than 12.6 µM.

Staying with this assay, now noted: Test 4, M. tuberculosis strain EH 4.0 (361.269).
For orientation: pIC50 means the IC50 on a negative log10 scale, so that one unit is a factor of ten. Read a low pIC50 as a high IC50. Regarding `CCc1nc2ccc(Cl)cn2c1C(=O)NCC1CC12CCN(c1ccc(OC(F)(F)F)cc1)CC2` (centres unmarked) [Compound 63], the negative logarithm of the IC50 (pIC50) turned out to be 6.5.
